Results: PubChem BioAssay (NCI)
Values joined by “and” are separate entries in the source; they are usually repeats but may differ in a detail not shown here. Equal entries are not always repeated.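 Values below derive from 48-hour exposures of cells grown in 96-well plates, with endpoints linearly interpolated between the two concentrations bracketing the appropriate inhibition level. GI50: concentration for 50% inhibition of growth. The concentration for full growth arrest is given as TGI.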

Assays:
Assay in all cases: growth of human tumour cells (NCI), 48 h
M14 melanoma = system: M14 melanoma
NCI-H522 lung = system: NCI-H522 lung
HL-60(TB) leukemia = system: HL-60(TB) leukemia
RXF 393 renal = system: RXF 393 renal
SNB-19 CNS = system: SNB-19 CNS
CCRF-CEM leukemia = system: CCRF-CEM leukemia
OVCAR-3 ovarian = system: OVCAR-3 ovarian
NCI-H23 lung = system: NCI-H23 lung
KM12 colon = system: KM12 colon
MDA-MB-231 breast = system: MDA-MB-231 breast

SMILES | TGI (M14 melanoma) | TGI (NCI-H522 lung) | TGI (HL-60(TB) leukemia) [µM] | TGI (RXF 393 renal) [µM] | TGI (SNB-19 CNS) [µM] | TGI (CCRF-CEM leukemia) [µM] | TGI (OVCAR-3 ovarian) [µM] | TGI (NCI-H23 lung) [µM] | TGI (KM12 colon) [µM] | TGI (MDA-MB-231 breast) [µM] | GI50 (M14 melanoma) [nM] | GI50 (NCI-H522 lung) [nM] | GI50 (NCI-H23 lung) [nM] | GI50 (KM12 colon) [nM]
NCCSC(c1ccccc1)c1ccccc1 | 29.9 µM | 38.4 µM | 0.793 | 39.8 | > 100 | > 100 | 40.6 | > 100 | 35.6 | 37.3 | – | – | – | –
Nc1nc(SCCc2ccccc2)nc2nc3c(c(-c4ccccc4)c12)CCCC3 | > 100 µM | – | > 100 | 81.1 | > 100 | > 100 | > 100 | > 100 | > 100 | > 100 | – | – | – | –
CCOC(=O)C1=NN(c2ccc(C)cc2)C2=CC(C)=NN(C)C(=S)N21 | > 100 µM | 36.5 µM | > 100 | 30.1 | > 100 | > 100 | > 100 | > 100 | > 100 | > 100 | – | – | – | –
CCOC(=O)C(NC(=O)c1ccco1)(Nc1nc2ccc(OCC)cc2s1)C(F)(F)F (stereo not given) | > 100 µM | > 100 µM | > 100 | 30.9 | > 100 | > 100 | > 100 | > 100 | 98.3 | > 100 | – | – | – | –
O=C(c1cccs1)N(C(=S)OC12CC3CC(CC(C3)C1)C2)c1ccccc1 | 43 µM | 46 µM | 72.5 | > 100 | > 100 | 52.1 | > 100 | > 100 | > 100 | > 100 | – | – | – | –
COc1ccc2c(c1)[nH]c1c(/C=C/c3ccccc3)nccc12 | 35.3 µM | 29 µM | 54 | 38 | 38.5 | > 100 | 36.9 | 35.9 | 41.2 | 37.2 | – | – | – | –
CC12CC3OC(=O)C1COC14OC5(C2C1=O)C(O)(CCC1C4CC(O)C2(O)CC=CC(=O)C12C)C(=O)OC35C (stereo not given) | > 100 µM | > 100 µM | > 100 | – | > 100 | > 100 | > 100 | > 100 | > 100 | > 100 | – | – | – | –
CC1CC[C@@]2(OC1)OC1C[C@H]3[C@@H]4CC=C5CC(OC6OC(CO)C(OC7OC(CO)C(O)C(OC8OCC(O)C(O)C8O)C7OC7OC(CO)C(O)C(O)C7O)C(O)C6O)CCC5(C)[C@H]4CCC3(C)C1[C@@H]2C (stereo not given in full) | 17.1 µM | 9.69 µM | 9.35 | 9.43 | > 25 | 12.1 | 9.25 | 11.7 | 10.5 | 9.29 | – | – | – | –
Cc1ccccc1C(=O)N/N=C/c1ccc(Sc2nccn2C)c([N+](=O)[O-])c1 | > 100 µM | > 100 µM | > 100 | > 100 | > 100 | > 100 | > 100 | > 100 | > 100 | > 100 | – | – | – | –
[N-]=[N+]=CC(=O)c1ccccc1C#CCCc1ccccc1 | > 100 µM | 30.9 µM | 32.9 | > 100 | > 100 | 62.1 | 61.5 | 89.2 | > 100 | – | – | – | – | –
Cc1c(N2C(=O)CS(=O)(=O)C2c2cccc(Oc3ccccc3)c2)c(=O)n(-c2ccccc2)n1C (stereo not given) | > 100 µM | > 100 µM | 53.4 | 79.3 | > 100 | > 100 | > 100 | > 100 | > 100 | > 100 | – | – | – | –
O=C(C[n+]1ccc2ccccc2c1)c1ccc2ccc3ccccc3c2c1 | 10.6 µM | 21.8 µM | – | 16.3 | 18.7 | 4.78 | 17.7 | 17.6 | 11.5 | 15.3 | – | – | – | –
COc1nc(C#CC2(O)CCCCC2)nc(OC)n1 | 38.3 µM | 21.9 µM | 16.3 | 27 | > 100 | 48.6 | 20.4 | 27.1 | 30.2 | 15 | – | – | – | –
CCCCCCCCC/C=C/C=C/C(=O)NCC(=O)NC1C(O)C(O)C(Nc2ncnc3nc[nH]c23)OC1C(O)CO (stereo not given) | 0.143 µM and 1.22 µM | 0.0758 µM and 0.277 µM | – | 0.0163 | – | – | 0.0436 | – | 0.608 | – | 24.8 | 4.53 | 24.7 | 1.3
CNC(=O)OCc1c(CO)nc(SC)n1C | – | > 100 µM | > 100 | > 100 | > 100 | > 100 | > 100 | > 100 | > 100 | – | – | – | – | –
CC(=O)C1=C(C)N(c2ccc(C)cc2)C2(O)C=CC(=O)C3C(=O)N(c4ccccc4)C(=O)C132 (stereo not given) | > 100 µM | 22 µM | 18.4 | 54.3 | 65.6 | > 100 | > 100 | 46.1 | 74.2 | 42.8 | – | – | – | –
CCC1CN(C(=O)c2ccccc2)C(Cc2c[nH]c3ccccc23)C(=O)C1CC(=O)OC (stereo not given) | > 100 µM | > 100 µM | > 100 | > 100 | – | > 100 | – | > 100 | > 100 | – | – | – | – | –
